The test system of one assay is RBL-2H3 mast cells. The experiment in a line: Degranulation assay, β-hexosaminidase release. The class given is cell-based, rat. The settings on record: for inhibition of mast cell degranulation with versus without A23187 pretreatment: PTD-conjugated peptides, read-outs β-hexosaminidase and histamine (Figure 4B); for reduction of β-hexosaminidase release: 10 µM PTD-fused peptide without SLO (LY294002 as positive control), DNP-BSA stimulation, no A23187 pretreatment, three independent experiments (Figure 2A gray bars, 2C); for inhibition of β-hexosaminidase release after A23187 pretreatment: cells pretreated with A23187, sensitized with DNP-IgE, then PTD-conjugated peptide (Figure 4B).

The next assay has as its target T1, SN23-Syn4-Vp8 complex (Rattus norvegicus, UniProt O70377+Q08850+Q9WUF4).
T1 construct: Lysates of RBL-2H3 cells; endogenous in cells; host or cells: RBL-2H3 (ATCC CRL-2256)
T1 sequence (Q08850 1-298): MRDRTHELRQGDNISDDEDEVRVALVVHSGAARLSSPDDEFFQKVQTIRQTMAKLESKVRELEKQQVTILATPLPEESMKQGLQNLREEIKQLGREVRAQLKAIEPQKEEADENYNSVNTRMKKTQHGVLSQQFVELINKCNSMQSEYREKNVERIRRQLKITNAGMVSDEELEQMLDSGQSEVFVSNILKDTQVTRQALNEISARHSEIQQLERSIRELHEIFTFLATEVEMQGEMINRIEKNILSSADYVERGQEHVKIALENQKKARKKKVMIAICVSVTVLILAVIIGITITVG
T1 sequence (O70377 1-210): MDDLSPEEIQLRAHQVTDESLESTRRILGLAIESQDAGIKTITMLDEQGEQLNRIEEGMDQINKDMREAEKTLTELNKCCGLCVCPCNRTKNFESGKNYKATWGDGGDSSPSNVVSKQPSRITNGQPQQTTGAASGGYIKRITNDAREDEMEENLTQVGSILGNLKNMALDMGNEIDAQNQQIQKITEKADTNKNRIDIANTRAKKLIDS
T1 sequence (Q9WUF4 1-100): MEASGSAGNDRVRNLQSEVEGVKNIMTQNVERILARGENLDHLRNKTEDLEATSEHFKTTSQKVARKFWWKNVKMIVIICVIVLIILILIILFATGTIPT
The experiment in a line: Co-immunoprecipitation of SNARE complexes in activated RBL-2H3 cells, anti-SNAP-23 blot. The class given is cell-based. The following applies: peptides added to the medium after A23187 pretreatment; IP of Vp8, blot anti-SNAP-23 (Figure 4C). The method, then:
Lysates of RBL-2H3 cells (0.5–1 × 10^6 cells), which were obtained by the addition of 1 mL lysis buffer (50 mM Tris–HCl, 150 mM NaCl, 1% Triton X-100™, 1 mM EDTA, pH 7.5) supplemented with a protease inhibitor cocktail (Calbiochem®, Merck Millipore, Billerica, MA, USA), were centrifuged at 13,000 g at 4°C to remove cell debris and precleared with 100 µL protein G Sepharose® (GE Healthcare) for 2 h at 4°C. The precleared lysates were incubated with antibodies against SNARE proteins (Syn4, SNAP-23, VAMP2, and VAMP8) for 2 h at 4°C for binding, and then the antibody–antigen complexes were precipitated by incubation with a protein G slurry overnight with constant shaking. After an extensive washing step with lysis buffer, an immunoblotting analysis was performed for the precipitates. The immunoprecipitated proteins and cell lysates were electrophoresed on 12% sodium dodecyl sulfate-polyacrylamide gel electrophoresis gels and then transferred to nitrocellulose blotting membranes (GE Healthcare). After blocking the membranes in TBST (10 mM Tris–HCl, 150 mM NaCl, and 0.05% Tween® 20, pH 8) containing 0.5% BSA and 5% skim milk for 1 h at room temperature, primary anti-SNAP-23 antibody (1:1,000 dilution) in TBST supplemented with 1% BSA and 0.01% sodium azide was added and incubated at 4°C overnight. The membranes were washed with TBST, treated with a horseradish peroxidase-conjugated secondary anti-mouse IgG antibody (A4416, Sigma-Aldrich), and visualized using enhanced chemiluminescence solution for the development of a luminescent signal.

Assay [1] concerns the target T2, SN23-Syn4-Vp8 SNARE complex (Rattus norvegicus, UniProt O70377+Q08850+Q9WUF4).
T2 construct: Syn4 (amino acids 1–298); SNAP-23 (amino acids 1–210); VAMP8 (amino acids 1–100); GST (N, cleaved yes); made in house; host or cells: Escherichia coli Rosetta(DE3)pLysS
T2 sequence (Q08850 1-298): T1 sequence (Q08850 1-298)
T2 sequence (O70377 1-210): T1 sequence (O70377 1-210)
T2 sequence (Q9WUF4 1-100): T1 sequence (Q9WUF4 1-100)
The assay can be described thus: SNARE-driven membrane fusion (total lipid mixing) assay with proteoliposomes. The class given is biochemical. The following applies: peptide added after preincubation of T- and V-liposomes at 4°C overnight (partially zippered SNAREs) (Figure 4A).

As to “EDEMEENLTQVGSILGN [SC23N, 17-mer peptide, N-terminal region of SNAP-23 SNARE motif SC23]”, in the assay with RBL-2H3 mast cells, the “inhibition of mast cell degranulation with versus without A23187 pretreatment” value was “inhibited mast cell degranulation more efficiently than without pretreatment”. Also, the “SNARE complex formation in cells (amount of SN23-Syn4-Vp8 complex)” value (“SNARE complex formation in cells” below) on SN23-Syn4-Vp8 complex is on record as “reduced”. Also, the “inhibition of membrane fusion, peptide added after preincubation” value (“inhibition of membrane fusion” below) in assay [1] was “inhibitory activities significantly diminished”.
For the sequence “LQSEVEGVKNIMTQNVE [Vp8N, 17-mer peptide, N-terminal region of VAMP8 SNARE motif]”, in the assay on RBL-2H3 mast cells, the “reduction of β-hexosaminidase release” value was 30–40%; the “inhibition of mast cell degranulation with versus without A23187 pretreatment” value was “inhibited mast cell degranulation more efficiently than without pretreatment”; the “inhibition of β-hexosaminidase release after A23187 pretreatment” value is “inhibited both histamine and β-hexosaminidase release”. The “SNARE complex formation in cells” value on SN23-Syn4-Vp8 complex was “reduced”. Moreover, the “inhibition of membrane fusion” value in assay [1] is listed as “inhibitory activities significantly diminished”.
Regarding “SARHSEIQQLERTIREL [Syn4N, 17-mer peptide, N-terminal region of syntaxin 4 SNARE motif]”, in the assay on RBL-2H3 mast cells, the “reduction of β-hexosaminidase release” value is given as 30–40%; the “inhibition of mast cell degranulation with versus without A23187 pretreatment” value is “inhibited mast cell degranulation more efficiently than without pretreatment”; the “inhibition of β-hexosaminidase release after A23187 pretreatment” value is “inhibited both histamine and β-hexosaminidase release”. Further, the “SNARE complex formation in cells” value at SN23-Syn4-Vp8 complex is listed as “reduced”. For the same sequence, the “inhibition of membrane fusion” value in assay [1] is listed as “inhibitory activities significantly diminished”.

The values are drawn from PMC5904360, “Soluble N-Ethylmaleimide-Sensitive Factor Attachment Protein Receptor-Derived Peptides for Regulation of Mast Cell Degranulation” (Frontiers in Immunology, 2018).
